Measured values published in PubChem BioAssay (NCI).
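A five-concentration, 48-hour dose response in 96-well plates underlies each endpoint, interpolated linearly between surrounding concentrations. At the TGI there is no net growth.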

Legend:
Assay in all cases: inhibition of tumour cell growth, NCI panel, 48 h
[1] = test system: M14 melanoma
[2] = test system: MOLT-4 leukemia
[3] = test system: SR leukemia
[4] = test system: HL-60(TB) leukemia
[5] = test system: OVCAR-4 ovarian
[6] = test system: A549 NSCLC
[7] = test system: CCRF-CEM leukemia
[8] = test system: SK-MEL-5 melanoma
[9] = test system: SK-OV-3 ovarian
[10] = test system: CAKI-1 renal
[11] = test system: A498 renal
[12] = test system: NCI-H460 lung
[13] = test system: LOX IMVI melanoma
[14] = test system: K-562 leukemia
[15] = test system: SNB-75 CNS
[16] = test system: SF-539 CNS
[17] = test system: OVCAR-8 ovarian
[18] = test system: ACHN renal
[19] = test system: HCC-2998 colon
[20] = test system: NCI-H23 lung

Compound	TGI [1] [µM]	TGI [2] [µM]	TGI [3] [µM]	TGI [4] [µM]	TGI [5] [µM]	TGI [6] [µM]	TGI [7] [µM]	TGI [8] [µM]	TGI [9] [µM]	TGI [10] [µM]	TGI [11] [µM]	TGI [12] [µM]	TGI [13] [µM]	TGI [14] [µM]	TGI [15] [µM]	TGI [16] [µM]	TGI [17] [µM]	TGI [18] [µM]	TGI [19] [µM]	TGI [20] [µM]
C=CCN1C[C@H](C)N([C@@H](c2ccc(C(=O)N3CCCCC3)cc2)c2cccc(OC)c2)C[C@H]1C	34.9	> 100	35.4	21.5	> 100	> 100	70.4	33.6	> 100	> 100	> 100	> 100	> 100	60.8	> 100	67.7	> 100	> 100	99.5	> 100
O=C(Nc1cccc(C(F)(F)F)c1)C(=O)C1NC(=S)NC1=O (stereo not given)	> 100	> 100	> 100	> 100	> 100	> 100	> 100	> 100	> 100	> 100	> 100	> 100	> 100	> 100	> 100	> 100	> 100	> 100	> 100	> 100
NC(=O)/C(=N\NC(=O)C[n+]1ccccc1)C1NC(=O)NC1=O (stereo not given)	> 100	> 100	> 100	> 100	> 100	> 100	> 100	> 100	> 100	> 100	> 100	> 100	> 100	> 100	> 100	> 100	> 100	> 100	> 100	> 100
COC(=O)c1ccccc1NC(=NC1CCCCCC1)NS(=O)(=O)c1ccc(C)cc1	> 100	> 100	> 100	> 100	> 100	> 100	> 100	> 100	> 100	> 100	> 100	> 100	> 100	> 100	> 100	> 100	> 100	> 100	> 100	> 100
CC(=NNC(=S)Nc1cccc(C)c1)c1cccc(C(C)=NNC(=S)Nc2cccc(C)c2)n1	39.3	61.6	40.8	70.1	38.5	87.1	> 100	30.8	> 100	71.1	61.6	> 100	85.3	> 100	69.2	46.1	76.3	46.4	> 100	> 100
C[C@]12CC[C@H]3[C@@H](CC=C4C[C@@H](O)CC[C@@]43C)[C@@H]1C/C(=C/c1ccccc1)[C@@H]2O	> 77.8	> 100	> 100	> 100	> 73.2	> 51.5	> 100	> 100	> 66.7	> 58.9	35.8	> 100	> 50.2	> 100	> 68.5	> 86.2	52.1	> 61.4	> 60.3	> 100
OC[P+](CO)(CO)C12CC3CC(CC(C3)C1)C2	> 100	> 80.9	> 82	35.4	> 100	> 100	62.2	> 100	> 100	> 100	> 100	> 100	> 29.8	> 100	> 100	> 100	> 100	> 100	> 100	> 100
N#Cc1cc([N+](=O)[O-])ccc1NC(=O)/C(=N\NC(=O)c1ccncc1)C(c1cnc2ccc([N+](=O)[O-])cc2n1)[N+](=O)[O-] (stereo not given)	3.23	22.9	46.8	10.6	5.76	15.8	25.6	2.14	20	17.9	17.7	8.17	2.23	6.4	3.83	3.63	9.83	9.14	22.2	2.65
CCOC(=O)C1(N)CCc2[nH][nH]c(=O)c2C1 (stereo not given)	> 100	> 100	> 100	> 100	> 100	> 100	> 100	> 100	> 100	> 100	> 100	> 100	> 100	> 100	> 100	> 100	> 100	> 100	> 100	> 100
COC(=O)C1=C(OC(=O)/C(=C/c2ccccc2)c2ccc(Cl)cc2)C(C(=O)OC)[C@@]2(O)[C@@H](C(=O)OC)[C@H](C)C[C@@H]1[C@@H]2C(=O)OC (stereo not given in full)	> 100	> 100	> 100	> 100	> 100	> 100	> 100	> 100	> 100	> 100	> 100	> 100	> 100	> 100	> 100	> 100	> 100	> 100	> 100	> 100
